Patent US12016860B2, “Combination therapies with Cbl-b inhibitor compounds” (Nurix Therapeutics, Inc., priority 2021, dated 2024)

Key:
[1] = system: total primary human T-cells; test: IL-2 and IFN-γ release (ELISA) from stimulated primary human T-cells; assay type: cell-based; details: primary human T-cells stimulated with anti-CD3, with and without CD28 co-stimulation; lesser degree without co-stimulation
Description: Cells were stimulated with plate bound anti-CD3 (right) or anti-CD3/anti-CD28 (left) in the presence or absence of the indicated concentration of compound 23. Release of IL-2 or IFN-γ were assessed by ELISA. Compound 23 inhibition of Cbl-b enhanced IL-2 and IFN-γ secretion in primary human T-cells stimulated with anti-CD3 antibodies, in both the presence and absence of CD28 co-stimulation, although to a lesser degree in the absence of co-stimulation.

orthotopic 4T1 tumors = test: Orthotopic 4T1 model, combination with anti-PD-1 antibody; assay type: in vivo, mice
Description: (§1) This example provides assays and results for treating tumor models in vivo with combinations of Cbl-b compounds and anti-PD1 antibodies as described herein. The antibody is a mouse anti-PD1 RMP1-14 antibody, useful in mouse in vivo assays as model for administration of human PD-1 axis antagonists for treatment of human cancer.
Beginning on Day 9, tumor volumes and body weights were measured twice weekly. […] Statistical significance of differences in the number of colonies between groups was evaluated using Kruskal-Wallis one-way ANOVA with Dunn's multiple comparisons test.

MC38 tumors = test: MC38 model, combination with anti-PD-1 antibody; assay type: in vivo, mice
Description: as §1
Beginning on Day 10, tumor volumes were measured twice weekly.

Raji cells = test: Raji model in SCID mice with NK cell depletion (anti-asialo-GM1); assay type: in vivo; details: p<0.0001
Description: Three additional groups of mice were treated in the presence of depleting antibodies for NK cells (anti-asialo-GM1).

CT26 tumors [2] = test: Flow cytometry of tumor-infiltrating immune cells in CT26 tumors; assay type: in vivo, mice
Description: CT26 tumors were harvested after 19 doses of compound 23 or vehicle and tumor-infiltrating immune cell density and phenotype was assessed by flow cytometry.

[3] = system: DoTc 4510 (BRCA2 mutated) cells; test: Caspase 3/7 apoptosis Incucyte assay with olaparib, DoTc 4510; assay type: cell-based; details: vs 0.05% DMSO, combination also vs single agents p<0.0001
Description: (§2) BT549 (BRCA wild type) (A) and DoTc 4510 (BRCA2 mutated) (B) cells were seeded in duplicate into tissue culture treated black-sided, clear-bottom 96-well plates at 5,000^cells/well and allowed to adhere and establish for 24 h. Cells were treated with indicated concentrations of DMSO, compound 23, or Olaparib (FIGS. 13A and 13B) either alone or in combination and were labelled with 1× Essen Bioscience IncuCyte® Caspase-3/7 Green Reagent (final concentration 5 μM). Treated plates were imaged every 2 hours for 72 hours with the IncuCyte® S3 Live-Cell Analysis System. At each timepoint, one image per well was taken in both brightfield and FITC channels on the IncuCyte® S3 Live-Cell Analysis System. Images were analyzed for number of green objects per mm^2 using the IncuCyte S3 v2017A software.

CT26 tumors [4] = test: CT26 tumor model with depleting antibodies for CD4+, CD8+ or NK cells; assay type: in vivo, mice; details: 30 mg/kg PO QD Day 9 to 25
Description: Tumor volume at Day 25 is indicated. CD8+ T-cell or NK cell depletion abrogates compound 23 activity. Stats were calculated with Mann-Whitney (Vehicle vs. compound 23) or one-way ANOVA with Dunn's multiple comparisons test (compound 23 vs. Depletion groups); (*P≤0.05, **P≤0.01, ****P≤0.0001). The efficacy of compound 23 on tumors is CD8+ T function and on NK cell function.

BT549 tumor cell line = test: Caspase 3/7 apoptosis Incucyte assay with paclitaxel, BT549; assay type: cell-based; details: 0.1 μM compound 23, 0.002 μM paclitaxel, vs 0.05% DMSO, combination also vs single agents p<0.0001
Description: as §2, with “BT549” for “BT549 (BRCA wild type) (A) and DoTc 4510 (BRCA2 mutated) (B)”, “5,000 ^cells/well” for “5,000^cells/well”, “with” for “with indicated concentrations of”, “Paclitaxel” for “Olaparib (FIGS. 13A and 13B)”, “48” for “72”
Using a caspase 3/7 apoptosis Incucyte® assay, the effect of compound 23, paclitaxel and the combination of compound 23 and paclitaxel on tumor cell apoptosis was assessed in the BT549 tumor cell line (a mammary gland carcinoma) in vitro.

[5] = single agents vs vehicle, combination vs vehicle or either single agent

C[C@H]1CCCN(Cc2cc3c(c(C(F)(F)F)c2)CN(c2cccc([C@]4(c5nncn5C)C[C@@H](C)C4)c2)C3=O)C1 [compound 23]
IFN-γ secretion [1]: enhanced | IL-2 secretion [1]: enhanced | interaction with PD-1 antibody blockade (orthotopic 4T1 tumors): synergizes | metastatic lung tumor burden (orthotopic 4T1 tumors; lungs harvested Day 28, single agents vs vehicle, combination vs vehicle or either single agent): reduced metastatic lung tumor burden | primary tumor volume (orthotopic 4T1 tumors; [5]): significantly smaller primary tumors | interaction with PD-1 antibody blockade (MC38 tumors): synergizes | primary tumor volume (MC38 tumors; [5]): significantly smaller primary tumors | effect of NK cell depletion on activity (survival) (Raji cells): abrogates | CD8+ T-cells to Tregs ratio (CT26 tumors [2]; 19 doses): increased | CD8+ effector T-cells (PD1+) to Tregs ratio (CT26 tumors [2]; 19 doses): increased | frequency of CD8+ T-cells that express the activation marker CD29 (CT26 tumors [2]; 19 doses): increased | frequency of total CD3+ T-cells as a percentage of CD45+ leukocytes (CT26 tumors [2]; 19 doses): increased | frequency of total CD8+ T-cells as a percentage of CD45+ leukocytes (CT26 tumors [2]; 19 doses): increased | frequency of tumor-infiltrating NK cells with cytotoxic phenotype (Granzyme+) (CT26 tumors [2]; 19 doses): increased | number of total CD8+ T-cells per gram of tumor (CT26 tumors [2]; 19 doses): increased | number of tumor-infiltrating leukocytes (TIL) per gram of tumor (CT26 tumors [2]; 19 doses 30 mg/kg daily PO): increased | tumor cell apoptosis (caspase 3/7) [3]: did not significantly increase tumor cell apoptosis | effect of CD8+ T-cell depletion on compound activity (tumor volume at Day 25) (CT26 tumors [4]): abrogates | effect of NK cell depletion on compound activity (tumor volume at Day 25) (CT26 tumors [4]; anti-asialo-GM1): abrogates | tumor cell apoptosis (caspase 3/7) (BT549 tumor cell line): did not undergo a significant increase in apoptosis
